{"source": "patent US12653860B2", "about": "“Compositions and methods for editing beta-globin for treatment of hemaglobinopathies” (Vertex Pharmaceuticals Incorporated, priority 2019, dated 2026)", "molecules": {"B1": {"name": "R02 gRNA: sgRNA targeting the HBB locus, SEQ ID NO: 17 (spacer SEQ ID NO: 16) (nucleic acid)", "guide": "mC*mU*mU*rGrCrCrCrCrArCrArGrGrGrCrArGrUrArArGrUrUrUrUrArGrArGrCrUrArGrArArArUrArGrCrArArGrUrUrArArArArUrArArGrGrCrUrArGrUrCrCrGrUrUrArUrCrArArCrUrUrGrArArArArArGrUrGrGrCrArCrCrGrArGrUrCrGrGrUrGrCmU*mU*mU*rU"}}, "key": {"[1]": {"test_system": "BFP gene encoded in the AAVS1 locus of HEK293 T cells", "test": "BFP to GFP reporter assay of HDR repair (flow cytometry)", "format": "cell-based", "conditions": "different concentrations or doses; FIG. 1B, 1C", "procedure": "An in vitro assay was conducted to determine the ability of various inhibitors and enhancers to improve the efficiency of HDR repair in HEK293 T cells. Specifically, a fluorescent reporter-based screening approach was developed to identify molecules that enhance gene-editing by HDR. A reporter system was generated in HEK293 T cells comprising a genomic AAVS1 locus that encoded either a blue fluorescent protein (BFP) or a green fluorescent protein (GFP) within the AAVS1 locus. A gene encoding BFP can be converted to a gene encoding GFP by substitution of cytosine at position 199 to uridine (e.g., a C to U transition at position 199). By introducing a DSB within the BFP gene using a CRISPR/Cas9 gene-editing system, a homology donor DNA encoding the nucleotide substitution can be used to edit the BFP gene to a GFP gene by HDR repair. Thus, a gene edit that induces a C to U transition at position 199 results in a change in cellular fluorescence. A change in the fluorescence of the cell measured by flow cytometry can be used to quantify efficiency of HDR repair. Additionally, the reverse gene edit can be performed for an AAVS1 locus encoding a GFP gene, wherein a GFP can be converted to BFP by substitution of uridine at position 199 to cytosine.\nTo create the reporter system, an AAV-based homology donor DNA encoding either BFP or GFP was created. The AAV-BFP or AAV-GFP donor was flanked by homology arms that were 1000 base pairs in length and expression of BFP or GFP was driven by the MND promoter (e.g., a synthetic promoter that contains the U3 region of a modified Moloney murine leukemia virus long term terminal repeat with myeloproliferative sarcoma virus enhancer and deleted negative control region, SEQ ID NO: 58). The viral DNA was packaged into capsids of adeno-associated virus serotype 6 (AAV6) vector. Either the BFP or GFP donor was introduced using the AAV6 vector into the AAVS1 locus in HEK293 T cells by homologous recombination using CRISPR-Cas9 as follows: purified Cas9 protein was complexed with two different single gRNAs (sgRNAs) targeting the AAVS1 locus at SEQ ID NO: 3 (spacer sequence identified by SEQ ID NO: 4; gRNA obtained from Maxcyte) or SEQ ID NO: 5 (spacer sequence identified by SEQ ID NO: 6; gRNA obtained from Thermo Fisher). Cas9 protein used in the Exemplary section provided herein refers to Cas9 polypeptide derived from S pyogenes (SpCas9), unless indicated otherwise.\nThe Cas9-sgRNA complex was electroporated into the HEK293 T cells using the Lonza Nucleofector program CM-130. Approximately, 2 hours after electroporation, the cells were infected with various viral doses of AAV6 encoding a BFP (SEQ ID NO: 44) or GFP homology donor (SEQ ID NO: 47). One week later, cells were analyzed by flow cytometry to verify integration and expression of BFP or GFP in the AAVS1 locus. HEK293 T cells expressing BFP or GFP were sorted into single cells in 96-well plates. After −2 weeks of growth, DNA extracted from individual cells was analyzed for precise integration of the respective BFP or GFP gene into the AAVS1 locus by long-range PCR. This PCR analysis allowed for determination of whether the BFP/GFP gene was integrated in one or both alleles of the AAVS1 locus.\nTo introduce a gene edit that converts BFP to GFP, cells were electroporated with ribonucleoprotein (RNP) comprised of Cas9 and sgRNA that targets the BFP gene encoded in the AAVS1 locus. The sgRNA targeted a sequence in the BFP gene identified by SEQ ID NO: 7 (sgRNA spacer sequence identified by SEQ ID NO: 8). The sgRNA were prepared using a standard sgRNA cassette specific to SpCas9, as indicated by SEQ ID NO: 2 (wherein a, c, g, u represent 2′ O-methyl phosphorothioate nucleotides; s represents phosphorothioate nucleotides; and A, C, G, U, N represent canonical RNA nucleotides). The gRNAs used in the Exemplary section provided herein were sgRNAs prepared with the SpCas9 sgRNA cassette unless indicated otherwise. […]"}, "[2]": {"test_system": "HBB locus in CD34-expressing LT-HSPCs", "test": "HDR insertion of AAV GFP donor at HBB locus (GFP fluorescence)", "format": "cell-based, human", "conditions": "i53 mRNA 0.5, 1, 2 g (FIG. 6A) or 0.3 g, 1 g (FIG. 6B); CYREN1 or CYREN2 mRNA; any dose of XL413 (data not shown)", "procedure": "Frozen CD34-expressing LT-HSPCs derived from plerixafor (i.e., Mozibil®)+GCSF-dual mobilized peripheral blood obtained from healthy human donors were purchased from a commercial vendor. LT-HSPCs were maintained in culture media comprised of the reagents shown in Table 4 and were incubated at 37° C., 5% carbon dioxide, 4% oxygen. […] 2×10^5 cells were edited with 3 g Cas9 and 3 g gRNA. The target gene sequence (including target sequence with PAM), R02 spacer sequence, and R02 sgRNA sequence are identified in Table 3.\nThe cells were transfected with a dsDNA homology donor encoding GFP under a SFFV promoter (SEQ ID NO: 60) that was delivered by AAV (SEQ ID NO: 56). […] The HDR efficiency was determined by measuring the level of GFP fluorescence in the cells following electroporation. To determine the effect of 53BP1 inhibition on HDR efficiency, the 53BP1 inhibitor i53 was introduced as an mRNA-encoded protein to the cells during electroporation with Cas9/gRNA RNP and AAV DNA that serves as a donor for homology directed repair.\nThe effect of 53BP1 inhibition on HDR efficiency was compared to other mRNA-encoded proteins that inhibit the NHEJ pathway. These included the proteins CYREN1 and CYREN2 that inhibit Ku70/80, a heterodimer that binds DNA blunt ends to prevent processing of 3′ single-stranded DNA tails necessary for HDR repair. Cells were electroporated with RNP, an AAV-GFP homology donor and mRNA encoding either i53 (mRNA ORF shown in SEQ ID NO: 69), CYREN1, or CYREN2.\nThe effect of treatment with i53 and Nu7441 was compared for improving efficiency of HDR repair of the HBB locus. Cells were treated with different doses of Nu7441 or with mRNA encoding i53 (ORF shown by SEQ ID NO: 69)."}, "CD34-expressing LT-HSPCs": {"test_system": "CD34-expressing LT-HSPCs", "test": "Viability of edited LT-HSPCs by Tryphan Blue staining", "format": "cell-based, human", "procedure": "(§1) Edited cells were evaluated for GFP fluorescence on day 2 post-editing using flow cytometry, and viability was determined via staining with Tryphan Blue.\n(§2) Edited cells were evaluated for viability as described above, and for incorporation of gene-edits at 2 days post-electroporation. […] The frequency of INDELs induced at the R02 cut site was also evaluated by NGS analysis."}, "[3]": {"test_system": "HBB gene locus in CD34-expressing LT-HSPCs", "test": "HDR efficiency at HBB gene with R02 RNP+AAV.307 and DNA-PK inhibitors, NGS", "format": "cell-based, human", "procedure": "(§3) Editing was performed as described above. However, the cells were electroporated with AAV.307 administered 1 hour prior to electroporation at a dose of 10,000 MOI. The cells were electroporated with compound 296 at a concentration ranging from 0.005 μM to 10 μM, with compound 984 at a concentration ranging from 0.005 μM to […], or with 1 μg i53 mRNA. Negative control cells were electroporated with RNP+AAV only or RNP only.\nas §2"}, "[4]": {"test_system": "HBB gene locus in CD34-expressing LT-HSPCs", "test": "INDEL frequency and species at R02 cut site with DNA-PK inhibitors, NGS", "format": "cell-based, human", "procedure": "as §3, §2\nThe INDELs species identified for cells edited in Experiment 2 were further evaluated to determine frequency of repair by NHEJ or MMEJ repair pathways. An INDEL of 1 nt was considered due to NHEJ repair; a deletion of −9 nt was considered due to MMEJ repair based on the microhomology present on either side of the R02 cut site. Based on percentage of total reads corresponding to these INDEL species, the ratio of gene edits due to NHEJ and MMEJ repair was evaluated."}, "[5]": {"molecular_target": "DNA-PK catalytic subunit (DNA-PKcs) (Homo sapiens, UniProt P78527)", "conditions": "reported, U.S. Pat. No. 9,592,232; cited from earlier work"}, "[6]": {"test_system": "HBB gene locus in CD34-expressing LT-HSPCs", "test": "HDR insertion of GFP donor at HBB gene locus with DNA-PK inhibitor (percentage of cells expressing GFP)", "format": "cell-based, human", "conditions": "for level of HDR repair (cells expressing GFP): day 2 post-editing, FIG. 37A", "procedure": "The effect of DNA-PK inhibition using Compound 296 was compared to the effect of 53BP1 inhibition using i53 for increased HDR repair of the HBB gene locus with donor DNA encoding GFP.\nThe efficiency of HDR for repair of the HBB gene with donor encoding GFP was determined by measuring the percentage of cells expressing GFP following electroporation.\nas §1"}, "genomic DNA": {"test_system": "genomic DNA", "test": "GUIDE-Seq screen of candidate off-target sites", "format": "cell-based", "source_text": "The second approach was to screen candidate off-target sites using GUIDE-Seq (see, e.g., Tsai et al (2015) NAT BIOTECHNOL. 33:187). Based on this approach, 36 sites in the genomic DNA were identified as undergoing off-target CRISPR/Cas9 cleavage using the R02 gRNA."}}, "note": "Strand notation (5' to 3'): a small letter for the sugar, then the base; units joined by * are phosphorothioate-linked, units joined directly phosphodiester-linked; [ ] holds rarer units or linkages, { } end groups; capitals alone tell only the bases. m = 2'-O-methyl; r = 2'-OH (RNA)"}
{"molecule": "C[C@]1(c2nc3c(C(N)=O)cccc3[nH]2)CCCN1", "note": "[Veliparib]", "values": [{"measurement": "HDR efficiency (improvement)", "setting": "[1]", "result": "no improvement in HDR efficiency"}]}
{"molecule": "Cl.O=c1[nH]c([C@@H]2CCCN2)nc2c1oc1ccc(Cl)cc12", "note": "[XL413]", "values": [{"measurement": "HDR efficiency vs RNP+AAV-only", "setting": "[2]", "result": "no improvement in HDR efficiency"}]}
{"molecule": "CCCCCCNC(=O)Nc1ccc(S(=O)(=O)Nc2ccc(CCNC[C@H](O)COc3ccc(O)cc3)cc2)cc1", "note": "[L755,507]", "values": [{"measurement": "HDR efficiency (improvement)", "setting": "[1]", "result": "no improvement in HDR efficiency"}]}
{"molecule": "[2H]c1nc(C)nc([2H])c1-c1cc(NC[C@@H](C)c2cccc3c(C(=O)NC)ccnc23)ncn1", "note": "[Compound 984]", "values": [{"measurement": "viability following editing", "setting": "CD34-expressing LT-HSPCs; particularly at minimal effective concentrations", "result": "good viability"}, {"measurement": "HDR efficiency", "setting": "[3]; 3.3 μM or 10 μM, R02 RNP+AAV.307, FIGS. 39A-39B", "result": "> 80", "unit": "%"}, {"measurement": "level of HDR repair", "setting": "[3]; 0.37-10 μM, FIGS. 39A-39B", "result": "high"}, {"measurement": "frequency of INDELs, fold reduced compared to R02 RNP only", "setting": "[4]; 3.3 μM or 10 μM, FIGS. 39A-39B", "result": "approximately 8 fold"}, {"measurement": "affinity and selectivity for DNA-PK", "setting": "[5]", "result": "high affinity and selectivity"}]}
{"molecule": "CNC(=O)c1ccnc2c([C@H](C)CNc3cc(-c4cnc(C)nc4)ncn3)cccc12", "note": "[Compound 296]", "values": [{"measurement": "level of HDR repair vs i53 mRNA", "setting": "[6]; 1.1 μM, 3.3 μM, or 10 μM, FIG. 37B", "result": "comparable to cells edited with i53 mRNA"}, {"measurement": "level of HDR repair (cells expressing GFP)", "setting": "[6]; 1.1 μM", "result": 53.5, "unit": "%"}, {"measurement": "level of HDR repair (cells expressing GFP)", "setting": "[6]; 3.3 μM", "result": 56.5, "unit": "%"}, {"measurement": "level of HDR repair (cells expressing GFP)", "setting": "[6]; 10 μM", "result": 55.9, "unit": "%"}, {"measurement": "viability of edited cells", "setting": "CD34-expressing LT-HSPCs; AAV.307, each concentration used, Experiment 2, FIG. 38C", "result": "> 80", "unit": "%"}, {"measurement": "viability of edited cells", "setting": "CD34-expressing LT-HSPCs; GFP donor, each concentration evaluated (0.014 μM to 10 μM), FIG. 37A", "result": "> 80", "unit": "%"}, {"measurement": "HDR efficiency", "setting": "[3]; 3.3 μM, R02 RNP+AAV.307", "result": 80, "unit": "%"}, {"measurement": "HDR efficiency, fold higher than R02 RNP+AAV only", "setting": "[3]; 0.37-10 μM", "result": "at least 1.6 fold"}, {"measurement": "level of HDR repair", "setting": "[3]; 0.37-10 M, R02 RNP+AAV.307, FIGS. 38A-38B", "result": "≥ 70", "unit": "%"}, {"measurement": "frequency of INDELs, fold reduced compared to R02 RNP only", "setting": "[4]; 0.37-10 μM", "result": "at least 4.6 fold"}, {"measurement": "INDEL species due to MMEJ repair (−9 nt deletion)", "setting": "[4]; Experiment 2, FIG. 38D", "result": "only a modest reduction"}, {"measurement": "fold decrease in INDELs due to NHEJ repair (INDEL of 1 nt)", "setting": "[4]; Experiment 2, FIG. 38D", "result": "≤ 30", "unit": "fold"}, {"measurement": "affinity and selectivity for DNA-PK", "setting": "[5]", "result": "high affinity and selectivity"}]}
{"molecule": "B1", "values": [{"measurement": "number of genomic sites identified as undergoing off-target CRISPR/Cas9 cleavage", "setting": "genomic DNA", "result": 36}]}
